This passage reports melting point results from a melting point compilation (Tetko et al.; mined from patent text by program, amines drawn as free bases though some values may be those of a salt).

A value given as a limit tells only on which side of the number the result lay.

As to `CCCc1c(OCc2nnn[nH]2)ccc(C(=O)c2ccccc2O)c1O`, the melting point lay in the range of 186 to 187 °C. As for `CC(=O)Nc1nc(CSc2ccc([N+](=O)[O-])cc2)cs1`, the figure is 165 to 166 °C; as for `Cc1cccc(C(=O)Nc2ccc3c(c2)CCC(NCc2ccccn2)CC3)c1-c1ccc(C(F)(F)F)cc1` (stereo not drawn), 104 to 106 °C; as for `COc1ccc(C(=O)Nc2ccc(-n3nc(C(F)(F)F)cc3C(F)(F)F)cc2)cc1`, 205 to 207 °C. The compound `CCOC(=O)CCCOc1ccc2c(c1)C(N(CC)S(C)(=O)=O)CC(C)(C)O2` (stereo not drawn) came in with a melting point of 40 to 42 °C. As for `CCc1ccc(Oc2ccc([C@@H]3CCCN4CCS(=O)(=O)N=C34)cc2)cc1`, the figure is 152 to 153 °C; as for `CC(=O)SCC(C(=O)N1CC2(C[C@H]1C(=O)O)C(=O)CCC2=O)C(F)(F)F` (stereo partly drawn), 153 to 155 °C; as for `O=C(O)c1cccc(CC2COc3cc(OCc4ccc5ccccc5n4)ccc3C2O)c1` (stereo not drawn), 165 to 168 °C. As for `O=C1C(=Cc2ccc([N+](=O)[O-])s2)CCc2cc(OCCn3ccnc3)ccc21`, the melting point is more than 240 °C. `O=C1Nc2cccnc2N(C(=O)NCCN2CCCCC2CN2CCOCC2)c2ccccc21` (stereo not drawn): the melting point came out at 167 °C. `O=C1OCCN1c1ccc([N+](=O)[O-])c(C(F)(F)F)c1` displayed a melting point of 112 to 113 °C. The same measure for `CCC(CC)Oc1nn(C)c(=O)c2c1ccn2-c1c(C)cc(C)cc1C`: 87 to 88 °C; for `COC(=O)C(C)(C)OCc1cc2cc(C(F)(F)F)ccc2n1S(=O)(=O)c1ccc2c(c1)OCCN2C`: 96 to 98 °C; for `CC(=O)N1Cc2cnc(C)n2-c2ccc(Cl)cc2C1c1ccccc1F` (stereo not drawn): 185 to 186 °C.

Compound `COc1ccc(S(=O)(=O)C(CCCCOc2ccccc2)(Cc2cccnc2)C(=O)O)cc1` (stereo not drawn) yielded a melting point of 148 to 151 °C.

Consider `CS(=O)(=O)c1ccc(-c2cnn(CC(F)(F)F)c(=O)c2-c2ccc(Cl)cc2)cc1`, for which the melting point is 55 to 57 °C. As for `CN(C)C=C(C=O)c1cccc(F)c1`, the figure is 42 to 43.5 °C; as for `CCOC(=O)C(=O)Nc1ccc(CC)cc1[N+](=O)[O-]`, 110 to 112 °C; as for `Cc1nc2c3c(ccn2c1C)C(=O)C(O)C(c1ccccc1)N3` (stereo not drawn), 232 to 234 °C. In turn, `CC(C)C[C@@H](C(=O)O)N(C)Cc1ccc(C(C)(C)C)cc1` showed a melting point of 110 to 112 °C.

The compound `CC1CCC(c2cccc(NC(=O)N3CCC4(CC3)OCCO4)c2)(N2CCN(c3ccccc3)CC2)CC1` (stereo not drawn) yielded a melting point of 245 to 247 °C. Turning to `CC(C)Oc1cc(-n2c(=O)c(F)c(C(F)(F)F)n(C)c2=O)c(F)cc1Cl`, the melting point lay in the range of 104 to 107 °C.

With `COC(=O)C(c1ccccc1)(c1ccccc1)c1c[nH]c(C)n1`, the melting point worked out at 136 °C. As for `CC(=O)c1cc(-c2c(C)c(NC(=O)CC(C)(C)C)c(C)c3c2OCC3c2ccc(C(C)C)cc2)cs1` (stereo not drawn), the figure is 133 to 134 °C; as for `CC1(C)CC(=O)C1(Cl)CC(Br)(Br)Br` (stereo not drawn), 95 to 97 °C.

As to `O=C(CN1CC(c2ccc(Cl)cc2)CC1=O)Oc1c(Cl)c(Cl)c(Cl)c(Cl)c1Cl` (stereo not drawn), the melting point was in the range of 135 to 136 °C. Compound `CC12CC[C@](C(=O)N3CCC4(C=Cc5ccccc54)CC3)(OC1=O)C2(C)C` registered a melting point of 215 to 216 °C. As for `CCCCCCOc1ccc(S(=O)(=O)N(CC(=O)NO)CC(C)C)cc1`, the figure is 108 to 110 °C. As for `CC(C)N1Cc2cncn2C(c2ccc(C#N)cc2)C1=O` (stereo not drawn), the figure is 122 to 124 °C. `Cc1ccnc2c1N=C(N)c1cccnc1N2C1CC1` came in with a melting point of 242 to 244 °C. Compound `Cc1ccc2c(c1)nnn2C1(c2ccccc2)OC(=O)c2cccc([N+](=O)[O-])c21` (stereo not drawn) yielded a melting point of 240 to 248 °C. As for `Cc1nc2cc(NC(=O)Nc3ccc(C(F)(F)F)cc3)ccc2o1`, the figure is 240 to 243 °C.

As to `Cc1c(-n2cnc3c(-c4ccccc4)cc(F)cc32)nc2ccc(F)cc2c1C(=O)O`, the melting point fell in the range of 208 to 210 °C.

Usually melting point stands for the temperature, or range, at which the solid turns liquid.
